Drawing on ChEMBL document CHEMBL5360598, “An ECD and NMR/DP4+ Computational Pipeline for Structure Revision and Elucidation of Diphenazine-Based Natural Products” (J Nat Prod, 2023), this text covers EC50 and Activity for seven compounds.

The source made the active and inactive calls. No cut-off for these calls is given here.

In assay [1] the target is Eukaryotic translation initiation factor 4E/Eukaryotic translation initiation factor 4E-binding protein 1 (Homo sapiens, UniProt P06730+Q13541). Kind of assay: Inhibition of eIF4E-4E-BP1 (unknown origin) interaction by cat-ELCCA assay. It counts as protein assay.
For assay [2], the target named is Eukaryotic translation initiation factor 4E (Homo sapiens) (UniProt P06730). As to the kind of experiment: Binding affinity to eIF4E in HEK293 cell lysate assessed as thermal stability at 25 uM at 42 to 53 degreeC by CETSA. Format: subcellular.
In the next assay the test system is MIA PaCa-2. Kind of assay: Antiproliferative activity against human MIA PaCa-2 cells by Cell Titer Glo assay. Format: functional, cell-based. On the technique in general: In ATP-based viability assays light output follows the ATP content of the culture.

Eukaryotic translation initiation factor 4E/Eukaryotic translation initiation factor 4E-binding protein 1, sequence (P06730 whole entry): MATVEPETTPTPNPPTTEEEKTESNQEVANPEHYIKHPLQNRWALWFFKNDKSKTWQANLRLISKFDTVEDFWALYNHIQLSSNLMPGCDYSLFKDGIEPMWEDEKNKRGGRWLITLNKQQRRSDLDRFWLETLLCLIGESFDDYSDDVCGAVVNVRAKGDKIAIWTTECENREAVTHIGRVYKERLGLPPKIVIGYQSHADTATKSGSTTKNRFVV
Eukaryotic translation initiation factor 4E/Eukaryotic translation initiation factor 4E-binding protein 1, sequence (Q13541 whole entry): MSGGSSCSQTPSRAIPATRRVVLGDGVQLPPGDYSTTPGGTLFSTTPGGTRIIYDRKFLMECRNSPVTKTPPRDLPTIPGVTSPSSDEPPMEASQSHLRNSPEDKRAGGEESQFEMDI
Eukaryotic translation initiation factor 4E (Homo sapiens), sequence (P06730 whole entry): as the sequence (P06730 whole entry) above

Regarding `O=C(O)c1cc2c(c3nc4c(O)cccc4nc13)[C@@H]1Cc3nc4cccc(O)c4nc3[C@@H](O)[C@@H]1O2` [IZUMIPHENAZINE A], in assay [1] (read-out: EC50), the EC50 (in general, the concentration needed to bring the measured effect to its halfway point) is 240 µM.

Regarding `O=C(O)c1cc2c(c3nc4c(O)cccc4nc13)[C@@H]1Cc3nc4cccc(O)c4nc3[C@@](O)(C1)O2`, the EC50 result in assay [1] was “Not Active”. For `O=C(O)c1ccc(=O)c2nc3c4c(ccc3[nH]c1-2)[C@@H]1Cc2nc3cccc(O)c3nc2[C@H](O4)[C@H]1O`, the EC50 in assay [1] (read-out: EC50) turned out to be 68 µM.

As for `Oc1cccc2nc3c(O)cccc3nc12`, the EC50 entry in assay [1] is “Not Active”.

On to `O=C(O)c1cc2c(c3nc4c(O)cccc4nc13)O[C@@H]1[C@H](O)c3nc4cccc(O)c4nc3C[C@H]21`, for which, in assay [2], the outcome was Active. Besides, the outcome in the assay on MIA PaCa-2 was inactive. Moreover, the EC50 in assay [1] (read-out: EC50) worked out at 7.8 µM. On to `O=C(O)c1cc2c(c3nc4c(O)cccc4nc13)[C@@H]1Cc3nc4cccc(O)c4nc3[C@H](O2)[C@H]1O`, for which the EC50 in assay [1] (read-out: EC50) is 260 µM. On the same count and under the same terms, the figure for `O=C(O)c1ccc(O)c2nc3c4c(ccc3nc12)[C@@H]1Cc2nc3cccc(O)c3nc2[C@H](O4)[C@H]1O` is 310 µM.
